Nine compounds from patent US20100184186A1, “NOVEL RIGIDOPORUS MICROPORUS LACCASE” (Academia Sinica, priority 2009, published 2010) can be followed below.

For experiment [1], the system named is Lcc35. As to the kind of experiment: Inhibitor effects on Lcc35 laccase activity. The format is biochemical, R. microporus BCRC 35318. The following applies: ABTS substrate; for Relative activity (%) of Lcc35: pre-incubation pH 5.0, 30° C., 10 min. Here is the method: The inhibitory effects of NaN3, ethylenediaminetetraacetic acid (EDTA), dithiothreitol (DTT), and L-Cysteine on Lcc35 were examined as follows. Lcc35 was pre-incubated in a solution (pH 5.0) containing one of the test compounds at 30° C. for 10 min. The laccase activity was then examined using ABTS as the substrate.

Experiment [2] has as its system R. microporus BCRC 35318. As to the kind of experiment: Effects of inducers on laccase production in R. microporus. It counts as cell-based. The following applies: for Yield of laccase production: inducer 1 mM in basal medium. The protocol: (§1) To isolate the laccase from R. microporus BCRC 35318, eight-day-old mycelial disks (8 mm in diameter) collected from the PDA plate mentioned above were inoculated into a basal medium containing (per liter) 10 g glucose, 0.22 g ammonium tartrate, 0.9 g K2HPO4, 0.1 g KH2PO4, 0.05 g MgSO4.7H2O, 0.5 g CaCl2, 0.01 g Thiamine HCl, and 10 ml solution (0.08 g CuSO4.5H2O, 0.07 g MnSO4.4H2O, 4.3 g ZnSO4.7H2O and 0.05 g FeSO4.7H2O per liter). The pH of the medium was adjusted to 5.5. After being cultured for 10 days at 30° C. in a rotary shaker with a speed setting of 125 rpm, the supernatant of the fungal culture thus obtained was collected and passed through a […] filter (Nalgene) to remove fungal cells. The filtrate was mixed with 100% ammonium sulfate for protein precipitation. The precipitated proteins were dissolved in 40 ml of a 10 mM sodium acetate buffer (pH 6.0) and the resultant solution was dialyzed against the same acetate buffer overnight to remove co-precipitated ammonium sulfate and then concentrated to 4 ml by ultracentrifugal filteration with a molecular cutoff of 10 kDa (Amicon).
R. microporus BCRC 35318 cells were cultured in the basal medium described in Example 1 above, which was supplemented with veratryl alcohol, 4-hydroxybenxoic acid, ferulic acid, or rice straw powder. Lcc35 were isolated from the culture supernatants following the method also described above and its activity was determined.

Experiment [3] relates to Rigidoporus microporus BCRC 35318 laccase Lcc35, native (wild type), mature form SEQ ID NO:1. As to the kind of experiment: Kinetic constants of Lcc35 for digesting ABTS and SGZ (initial reaction rates at various substrate concentrations). It counts as biochemical, R. microporus BCRC 35318. The protocol: The pH of the medium was adjusted to 5.5. After being cultured for 10 days at 30° C. in a rotary shaker with a speed setting of 125 rpm, the supernatant of the fungal culture thus obtained was collected and passed through a […] filter (Nalgene) to remove fungal cells. […] The precipitated proteins were dissolved in 40 ml of a 10 mM sodium acetate buffer (pH 6.0) and the resultant solution was dialyzed against the same acetate buffer overnight to remove co-precipitated ammonium sulfate and then concentrated to 4 ml by ultracentrifugal filteration with a molecular cutoff of 10 kDa (Amicon). Next, the laccase activities of Lcc35 under various pH conditions were determined, following the method described in Lu et al., Appl. Microbiol. […] After being incubated at 30° C. for 1 min (when ABST or SGZ was the substrate) or for 4 hours (when RBBR was the substrate), each of the reaction mixtures was examined with a spectrophotometer to determine its optical density at 420 nm (when ABST was the substrate), at 530 nm (when SGZ was the substrate), or at 585 nm (when RBBR was the substrate). […] Kinetic constants of Lcc35 for digesting ABTS and SGZ were determined based on the initial reaction rates of Lcc35 at various substrate concentrations. The enzymatic reactions were taken place at pH 5 (for ABST) or pH 6 (for SGH) and 70° C.

Experiment [4] has the same test system. As to the kind of experiment: Inhibitor effects on Lcc35 laccase activity (ABTS as the substrate). The format is biochemical, R. microporus BCRC 35318. The following applies: 10 min; for Relative activity (residual laccase activity with inhibitor; None = 100.0): pre-incubated pH 5.0, 30° C. The protocol:
as §1
Next, the laccase activities of Lcc35 under various pH conditions were determined, following the method described in Lu et al., Appl. Microbiol. Biotechnol., 2007, 74, (6), 1232-1239. 0.01 ml of the Lcc35-containing solution was mixed with (i) 0.49 ml of a 50 mM reaction buffer of glycine-HCl (pH 2.0 to 3.0), sodium acetate (pH 4.0 to 6.0), or sodium phosphate (pH 7.0 to 8.0) and (ii) 0.5 ml of a substrate solution containing 2 mM ABTS, 1 mM [N,N′-bis(3,5-dimethoxy-4-hydroxybenzylidene)hydrazine] (SGZ), or 0.04% RBBR. After being incubated at 30° C. for 1 min (when ABST or SGZ was the substrate) or for 4 hours (when RBBR was the substrate), each of the reaction mixtures was examined with a spectrophotometer to determine its optical density at 420 nm (when ABST was the substrate), at 530 nm (when SGZ was the substrate), or at 585 nm (when RBBR was the substrate). One unit of laccase activity was defined as the amount of Lcc35 that oxidized 1 μmol substrate per min. […]

Where [5] appears, read: substrate ABTS, pH 5, 70° C., 420 nm.
The mark [6] stands for this setting: substrate SGZ, pH 6, 70° C., 530 nm.

With `O[C@H](CS)[C@H](O)CS` (racemic) [DTT, dithiothreitol], the results for the “Relative activity (%) of Lcc35” value in experiment [1] (compound 0.1 mM) and in experiment [1] (compound 1.0 mM) were 92.3% and 91.8%, respectively.

With `O=C(O)c1ccc(O)cc1` [4-Hydroxybenzoic acid, 4-hydroxybenzoic acid], in experiment [2], the “Yield of laccase production” value turned out to be 10.5 Unit ml^−1. Also, in experiment [2] (versus no inducer), the “increase of Lcc35 production” value amounted to 10.5 fold.

On to `CCn1c(=NN=c2sc3cc(S(=O)(=O)O)ccc3n2CC)sc2cc(S(=O)(=O)O)ccc21` [ABTS, 2,2-azinobis(3-ethylbenzathiazoline-6-sulfonic acid)], for which, in experiment [3] (setting [5]), the Kcat is 730 s⁻¹ and the Km worked out at 53 µM.

For the compound `O=C(O)CN(CCN(CC(=O)O)CC(=O)O)CC(=O)O` [EDTA, ethylenediaminetetraacetic acid], the “Relative activity (%) of Lcc35” value in experiment [1] (compound 10.0 mM) and in experiment [1] (compound 25.0 mM) was 100.0% throughout.

Regarding `COc1cc(/C=C/C(=O)O)ccc1O` [Ferulic acid, ferulic acid], the “Yield of laccase production” value in experiment [2] is given as 2.4 Unit ml^−1.

As for `N[C@@H](CS)C(=O)O` [L-Cysteine], the “Relative activity (%) of Lcc35” value in experiment [1] (compound 0.1 mM) came out at 97.2%; in experiment [1] (compound 1.0 mM), 92.7%.

For the compound `[N-]=[N+]=[N-].[Na+]` [NaN3], the “inhibitory effect on Lcc35 activity (in words)” value in experiment [1] is reported as “substantially inhibited”. The “Relative activity (%) of Lcc35” value in experiment [1] (compound 0.1 mM) came out at 50.0%; in experiment [1] (compound 1.0 mM), 17.0%. Moreover, the “Relative activity (residual laccase activity with inhibitor; None = 100.0)” value in experiment [4] (0.1 mM compound) amounted to 50.0%; in experiment [4] (1.0 mM compound) it was 17.0%. Further, in experiment [4] (concentrations of Table 2, pH 5.0, 30° C.), the “inhibitory effect on Lcc35 (in words)” value is listed as “substantially inhibited”.

In the case of `COc1cc(/C=N/N=C/c2cc(OC)c(O)c(OC)c2)cc(OC)c1O` [SGZ, N,N′-bis(3,5-dimethoxy-4-hydroxybenzylidene)hydrazine], in experiment [3] (setting [6]), the Kcat was found to be 750 s⁻¹ and the Km was 7 µM.

`COc1ccc(CO)cc1OC` [Veratryl alcohol, veratryl alcohol]: in experiment [2], the “Yield of laccase production” value turned out to be 3.4 Unit ml^−1.
